“Also recorded” adds a separate entry of the source. Numbered stars: 1 amine (or outer) side, 2 acyl side, 3 side chain; on linkers, the order of the positions; unused ones are H or OH. Bridge positions count the residues as written; N and C are the ends. Square brackets hold non-standard residues; d marks the D form. Peptide text beside a SMILES is read from it. * marks the point of attachment. Octanoyl(6-Me) = CCC(C)CCCCC(=O)*; NH(2-ClPh) = Clc1ccccc1N*; Dab = NCC[CH](N)C(=O)O; CO = O=C([*:1])[*:2]
Legend:
[1] = system: Enterobacter; assay: MIC90, broth microdilution, panel of Gram negative clinical isolates; type: cell-based; conditions: 20 strains; some strains multi-drug resistant
Protocol: (§1) To evaluate the potency and spectrum of compounds of Formula (I), (i.e., Compounds designated 5 and 6), a study was conducted that put together a panel of 455 Gram negative strains, which included multi-drug resistant clinical isolates selected from various surveillance programs. Table 3A lists the strains that were included in the study and the activity of Compound 5, Compound 6, and colistin (polymyxin E, abbreviated PME). Strains with acquired resistance to colistin and/or carbapenems and/or broad spectrum cephalosporins were pre-selected and included in all organism groups evaluated.
(§2) MIC testing was performed according to Clinical and Laboratory Standards Institute (CLSI) M7-A7 (2006) broth microdilution methods. Unless otherwise indicated, MIC values are provided in units of micrograms per milliliter.
(§3) One day prior to testing, individual colonies were isolated by streaking onto rich, non-selective Tryptic Soy agar with 5% lysed sheeps blood (TSAB) with incubation at 35-37° C. for 18-24 hours.
(§4) Cultures were prepared by touching 3-5 colonies into 3 mL of Cation adjusted Mueller Hinton Broth (caMHB) in a 14 mL tube (CaMHB was prepared and sterilized according to manufacturer's specifications). Cultures were grown at 37° C. 200 rpm for approximately four hours prior to density adjustment for addition to the MIC assay.
(§5) OD600 of growing cultures was measured and adjusted to approximately 10^5 colony forming units per mL (CFU/mL) in caMHB for MIC inoculation (approximately OD600 0.001).
(§6) Diluted cultures were used to inoculate 50 μL per well in broth microdilution assays (final volume 100 μl per well; compounds were prepared in two-fold dilutions).
(§7) Plates were incubated 16-20 hrs at 37° C., with shaking at 200 rpm.
(§8) OD600 was determined for all wells. Growth was defined as OD600>0.1. MICs were defined as the lowest concentration producing no visible turbidity (OD600<0.1).

[2] = system: Citrobacter spp.; assay: as above; type: cell-based; conditions: 20 strains; some strains multi-drug resistant
Protocol: as §1, §2, §3, §4, §5, §6, §7, §8

[3] = system: Acinetobacter spp; assay: as above; type: cell-based; conditions: 81 strains
Protocol: as §1, §2, §3, §4, §5, §6, §7, §8

[4] = system: cynomolgus monkeys; assay: Comparative 7 day repeat dose safety study, renal toxicity; type: in vivo, cynomolgus monkey; conditions: for renal histologic findings: IV infusion; for nephrotoxicity compared with polymyxin B: equivalent antibacterial activity doses (75,000 to 112,500 IU/kg), FIG. 2
Protocol: A comparative 7 day repeat dose safety study in cynomologous monkeys between polymyxin B and Compound 5 was performed.
Animals were 2.52 kg to 3.77 kg and were 4.2 to 5.7 years old. During acclimation, a chronic femoral intravenous catheter was implanted into all animals to permit continuous infusion. The femoral vein catheter was routed subcutaneously to exit through a prepared incision in the interscapular region. Animals were fitted with jackets connected to flexible stainless steel tethers that protected the catheters.
(§9) Monkeys were dosed twice or three times daily for seven days with control article (0.9% Sodium Chloride for Injection, USP), 25000 IU/kg Compound 5, 37500 IU/kg Compound 5, or 37500 IU/kg PMB (Alpharma, lot number A1411079). Each administration was given via a targeted 30-minute intravenous infusion.
(§10) The following parameters were evaluated: daily clinical observations and qualitative food consumption, body weight (twice prior to the first dosing and at necropsy), urinalysis, hematology, coagulation, serum chemistry, toxicokinetics, gross pathology, organ weights, and histopathology of the kidneys and injection sites, and of the liver and sciatic nerves of control and high dose groups. Animals were evaluated through Study Day 7 and then terminated.
FIG. 2 is a scatter plot showing nephrotoxicity data measured as a cumulative score based upon tubular degeneration, tubular regeneration, tubular dilatation, and tubular casts. Each category was scored on a basis from 0 to 4 based on the severity of each finding.
For comparison of Compound 5 and polymyxin B, the nephrotoxicity was measured as a cumulative score based upon tubular degeneration, tubular regeneration, tubular dilatation, and tubular casts. Each category was scored on a basis from 0 to 4 based on the severity of each finding and individual monkeys are represented in the FIG. 2.

[5] = Serum protein binding
[6] = system: P. aeruginosa #44; assay: MIC, broth microdilution; type: cell-based, Pseudomonas aeruginosa; conditions: for MIC against P. aeruginosa #44: Table 5, range of repeated tests
Protocol: as §2, §3, §4, §5, §6, §7, §8
(§11) P. aeruginosa #44 or K. pneumoniae #21 were grown in cation adjusted Mueller Hinton Broth (caMHB) (catalog #B12322; Fisher Scientific, Pittsburgh, Pa.) at 37° C. MIC testing was performed according to Clinical and Laboratory Standards Institute [CLSI, formerly National Committee for Clinical Laboratory Standards (NCCLS), Wayne, Pa.] guidelines for broth microdilution.
(§12) MIC testing was performed according to CLSI (formerly NCCLS) guidelines for broth microdilution.

[7] = system: S. maltophilia; assay: MIC90, broth microdilution, panel of Gram negative clinical isolates; type: cell-based, Stenotrophomonas maltophilia; conditions: 25 strains
Protocol: as §1, §2, §3, §4, §5, §6, §7, §8

[8] = system: Acinetobacter baumannii 1570; assay: MIC, broth microdilution; type: cell-based; conditions: for MIC against A. baumannii #1570: Table 8, range of repeated tests
Protocol: as §2, §3, §4, §5, §6, §7, §8
as §11, with “A. baumannii #1570” for “P. aeruginosa #44 or K. pneumoniae #21”
as §12

[9] = system: E. coli; assay: MIC90, broth microdilution, panel of Gram negative clinical isolates; type: cell-based, Escherichia coli; conditions: 80 strains; some strains multi-drug resistant
Protocol: as §1, §2, §3, §4, §5, §6, §7, §8

[10] = Pharmacokinetics/toxicokinetics in repeat-dose studies; type: in vivo, cynomolgus monkey
Protocol: as §9, §10
At higher dose levels, a slightly greater than dose-proportional response was evident in systemic exposure (AUC) and peak plasma concentrations (Cmax). The decrease in clearance at these higher doses may explain the non-linear systemic exposure to Compound 5.

[11] = system: P. aeruginosa; assay: MIC90, broth microdilution, panel of Gram negative clinical isolates; type: cell-based, Pseudomonas aeruginosa; conditions: 100 strains
Protocol: as §1, §2, §3, §4, §5, §6, §7, §8

SMILES	MIC90 Enterobacter [1]	MIC90 Citrobacter spp. [2]	MIC90 Acinetobacter spp [3]	renal histologic findings ([4]; 75,000 IU/kg/day, 7 days)	renal histologic findings ([4]; 112,500 IU/kg/day, 7 days)	fraction unbound [5]	MIC against P. aeruginosa #44 [6]	MIC90 S. maltophilia [7]	MIC against A. baumannii #1570 [8]	MIC90 E. coli [9]	MIC90 P. aeruginosa [11]	other results
CC(C)C[C@@H]1NC(=O)[C@@H](Cc2ccccc2)NC(=O)[C@H](CCN)NC(=O)[C@@H](NC(=O)[C@H](CCN)NC(=O)[C@@H](NC(=O)[C@H](CCN)NC(=O)Nc2ccccc2Cl)[C@@H](C)O)CCNC(=O)[C@H]([C@@H](C)O)NC(=O)[C@H](CCN)NC(=O)[C@H](CCN)NC1=O [Compound 5, (S)-4-amino-N-((2S,3R)-1-((S)-4-amino-1-oxo-1-((3S,6S,9S,12S,15R,18S,21S)-6,9,18-tris(2-aminoethyl)-15-benzyl-3-((R)-1-hydroxyethyl)-12-isobutyl-2,5,8,11,14,17,20-heptaoxo-1,4,7,10,13,16,19-heptaazacyclotricosan-21-ylamino)butan-2-ylamino)-3-hydroxy-1-oxobutan-2-yl)-2-(3-(2-chlorophenyl)ureido)butanamide] ({NH(2-ClPh)-CO}-[Dab]T[Dab][Dab][Dab][dF]L[Dab][Dab]T; lactam 4-C)	>16 micrograms/mL	0.5 micrograms/mL	4 micrograms/mL	very minimal histologic changes	increases in numbers and severity of cortical and medullary tubules containing necrotic or degenerative cells	~0.7	1-2 micrograms/ml	>16 micrograms/mL	2-4 micrograms/ml	2 micrograms/mL	2 micrograms/mL	nephrotoxicity compared with polymyxin B [4]: notably less severe nephrotoxicity; also recorded: markedly less nephrotoxic; nephrotoxicity compared with polymyxin B ([4]; listed as compound 5): reduced renal toxicity; MIC P. aeruginosa 44 ([6]; Table 3B): 1 micrograms/mL; MIC Acinetobacter baumannii 1570 ([8]; Table 3B): 4 micrograms/mL; volume of distribution ([10]; all species): greater than blood volume; clearance (CL) ([10]; cynomolgus monkey, in vivo): less than hepatic blood flow
CCC(C)CCCCC(=O)NC(CCN)C(=O)NC(C(=O)NC(CCN)C(=O)NC1CCNC(=O)C(C(C)O)NC(=O)C(CCN)NC(=O)C(CCN)NC(=O)C(CC(C)C)NC(=O)C(Cc2ccccc2)NC(=O)C(CCN)NC1=O)C(C)O (stereo not shown) [Polymyxin B, polymyxin B, reference compound] ({Octanoyl(6-Me)}-[Dab]T[Dab][Dab][Dab]FL[Dab][Dab]T; lactam 4-C; configuration not given here)	>64 micrograms/mL	1 micrograms/mL	2 micrograms/mL	renal tubular histology similar to findings from animals receiving 112,500 IU/kg/day of Compound 5	involvement of a majority of cortical and some medullary tubules containing necrotic or degenerate cells	~0.44	1-2 micrograms/ml	8 micrograms/mL	1-2 micrograms/ml	2 micrograms/mL	2 micrograms/mL	serum creatinine and BUN concentrations ([4]; 75,000 IU/kg/day, 7 days): mild increases; serum creatinine and blood urea nitrogen concentrations ([4]; 112,500 IU/kg/day, 7 days): elevations; maximal plasma concentrations (Cmax) relative to Compound 5 ([10]; greater, Day 1, 37,500 IU/kg): approximately 2 fold; systemic exposure (AUC) relative to Compound 5 ([10]; greater, same activity-normalized dose): 2.5 fold; systemic clearance relative to Compound 5 ([10]; less, Day 1): 2 to 3 fold; volume of distribution relative to Compound 5 ([10]; lower): approximately 2 fold
